Measured values taken from US20060173080A1, “Methods of modulating TNF using bupropion” (The Regents of the University of California, priority 2002, published 2006).
Like-named read-outs stand apart in the source and are kept apart here.

Key:
[1] = test system: cultures enriched in astrocytes; details: added to in vitro cultures; cited from earlier work
TNF [2] = details: in vivo LPS-induced model; cited from earlier work
CD patients = details: Kast 1998; cited from earlier work
TNF [3] = details: different experimental models; cited from earlier work
BALB/c mice = assay: LPS-induced shock model: survival and signs of endotoxemia after lethal LPS challenge; format: in vivo
Method: Male BALB/c mice were injected with 11, 33 or 100 mg/kg of bupropion or with placebo i.p. in saline 1 h before challenge with 600 μg of E. coli LPS (Sigma, St. Louis, Mo.) by i.p. route. Mice were sacrificed 90 min for detection of cytokines in the serum by sandwich ELISA. Values represent the means±SEM of 5 mice per group. * P<0.05.
BALB/c mice were injected intraperitoneally (i.p.) with bupropion or placebo 1 h prior to i.p. injection of LPS (600 ug/mouse).
Male, 6 weeks old BALB/c mice were used in LPS-induced shock experiments. All mice were raised and maintained at the animal facilities at the Goncalo Moniz Research Center-FIOCRUZ, and provided with rodent diet and water ad libitum. Animal numbers in experimental groups were the minimum necessary to permit statistical analysis. All animals were sacrificed under anaesthesia.
In some experiments, groups of mice received i.p. injection of propranolol (1 mg/Kg), SCH23390 (25 μg/kg) and sulpiride (25 mg/Kg) 1 h prior to injection of bupropion. […] To determine serum TNF, IL-1 beta and IL-10 levels, mice were sacrificed 90 min after injection of LPS and bled by axilar vein puncture. Levels of IFN-gamma and nitric oxide were assayed using sera of mice sacrificed 4 h after LPS injection. Platelet and leukocyte cell counts were performed using blood collected with EDTA after 4 h of LPS challenge, using an automated cell counter (ADVIA 60, Bayer).

[4] = test system: patients with Crohn's disease; details: cited from earlier work
[5] = test system: Crohn's patients with fistulas; details: cited from earlier work
TNF [6] = details: Goebel et al. 2000; cited from earlier work

Question: Which “LPS-stimulated TNF production” value [1] does the source give for NC[C@H](O)c1ccc(O)c(O)c1 [noradrenaline] here?
Answer: significantly blunted

Question: For bromocryptine, which TNF levels (TNF [2]) is on record?
Answer: lowered TNF levels

Question: For NNCCc1ccccc1 [phenelzine], which CD remission (CD patients) is on record?
Answer: CD remission

Question: For COc1ccc(C2CNC(=O)C2)cc1OC1CCCC1 (stereo not drawn) [rolipram], which TNF levels (TNF [3]) is on record?
Answer: lower TNF levels

Question: Which results are given for CCN1CCCC1CNC(=O)c1cc(S(N)(=O)=O)ccc1OC (stereo not drawn) [sulpiride]?
Answer: effect of antagonist on bupropion mediated survival / protection (BALB/c mice; antagonist i.p. 1 h prior to bupropion (propranolol 1 mg/Kg, SCH23390 25 μg/kg, sulpiride 25 mg/Kg), lethal LPS): did not interfere; protection from lethal LPS challenge by the antagonist alone (BALB/c mice; without bupropion, propranolol 1 mg/Kg, SCH23390 25 μg/kg, sulpiride 25 mg/Kg i.p.): partial protection; TNF levels (TNF [2]): lowered TNF levels

Question: Which patients in remission ([4]; four weeks after medication, placebo 4 percent) does the source give for “infliximab: monoclonal antibody acting against TNF-alpha, for moderate to severe Crohn's disease” here?
Answer: 33%

Question: What about the “share of patients with a 50 percent reduction in fistula drainage” value ([4]; second study, active fistulas, three doses two weeks apart) of the same molecule?
Answer: two-thirds

Question: What about the “share of the patients' fistulas closed” value ([4]; second study, active fistulas) of the same molecule?
Answer: over half

Question: Which “patients with complete remission” value ([5]; another study) does the source give for “Remicaid: new drug given early FDA approval for Crohn's patients with fistulas” here?
Answer: 48%

Question: And the “patients in whom half of the fistulas closed” value ([5]; one study)?
Answer: 68%

Question: Which results are given for CC(C)NCC(O)c1ccc(O)c(O)c1 (stereo not drawn) [isoproteronol]?
Answer: LPS-stimulated TNF production [1]: significantly blunted; TNF levels (TNF [6]): lower TNF levels

Question: With NCCc1ccc(O)c(O)c1 [dopamine] as the molecule, how does the “LPS-stimulated TNF production” value [1] read?
Answer: significantly blunted
